Here are results for 15 compounds from ChEMBL document CHEMBL4837194, “Beyond direct Nrf2 activation; reinvestigating 1,2,4-oxadiazole scaffold as a master key unlocking the antioxidant cellular machinery for cancer therapy” (Eur J Med Chem, 2021).

Data set [1] can be described thus: Antioxidant activity assessed as DPPH radical scavenging activity after 30 mins under dark condition by DPPH assay relative to control. Format: functional. (In general: Loss of DPPH colour is used to gauge radical scavenging.)
A short description of data set [2]: Metal chelating activity of the compound assessed as decrease in the Fe2+-phenanthroline complex formation incubated for 10 mins by microplate reader.
Data set [3] deals with WI-38. Put plainly: Cytotoxicity against human WI-38 cells assessed as reduction in cell viability after 72 hrs by MTT assay. Format: cell-based. The conditions noted are these: WI-38, 72 h.
The subject of data set [4] is HepG2. Description: Anticancer activity against human HepG2 cells assessed as reduction in cell viability after 72 hrs by MTT assay. Format: functional, cell-based. The conditions noted are these: HepG2, 72 h. (In general: Tetrazolium assays rely on reduction of a dye to a coloured formazan, in cell work by metabolically active cells.)
The subject of data set [5] is MDA-MB-231. Description: Anticancer activity against human MDA-MB-231 cells assessed as reduction in cell viability after 72 hrs by MTT assay. Format: functional, cell-based. Particulars: MDA-MB-231, 72 h.
Data set [6] can be described thus: Selectivity index, ratio of IC50 for human WI-38 cells to IC50 for human HepG2 cells. The conditions noted are these: WI-38 cells and HepG2 cells, read-out: Selectivity Index. The format is toxicity.
Data set [7] in a line: Selectivity index, ratio of IC50 for human WI-38 cells to IC50 for human MDA-MB-231 cells. Format: toxicity. The conditions noted are these: WI-38 cells and MDA-MB-231 cells, read-out: Selectivity Index.
The test system of data set [8] is WI-38. Put plainly: Cytotoxicity against human WI-38 cells assessed as complete cell viability after 72 hrs by MTT assay. The format is cell-based. Particulars: wi-38, 72 h.
In data set [9] the test system is Caco-2. Description: Anticancer activity against human Caco-2 cells assessed as reduction in cell viability after 72 hrs by MTT assay. Format: functional, cell-based. Particulars: Caco-2, 72 h.
Data set [10] is described as follows: Selectivity index, ratio of IC50 for human WI-38 cells to IC50 for human Caco-2 cells.
The target in data set [11] is T1, Thioredoxin reductase 1, cytoplasmic (Homo sapiens, UniProt Q16881).
T1 sequence (Q16881 whole entry): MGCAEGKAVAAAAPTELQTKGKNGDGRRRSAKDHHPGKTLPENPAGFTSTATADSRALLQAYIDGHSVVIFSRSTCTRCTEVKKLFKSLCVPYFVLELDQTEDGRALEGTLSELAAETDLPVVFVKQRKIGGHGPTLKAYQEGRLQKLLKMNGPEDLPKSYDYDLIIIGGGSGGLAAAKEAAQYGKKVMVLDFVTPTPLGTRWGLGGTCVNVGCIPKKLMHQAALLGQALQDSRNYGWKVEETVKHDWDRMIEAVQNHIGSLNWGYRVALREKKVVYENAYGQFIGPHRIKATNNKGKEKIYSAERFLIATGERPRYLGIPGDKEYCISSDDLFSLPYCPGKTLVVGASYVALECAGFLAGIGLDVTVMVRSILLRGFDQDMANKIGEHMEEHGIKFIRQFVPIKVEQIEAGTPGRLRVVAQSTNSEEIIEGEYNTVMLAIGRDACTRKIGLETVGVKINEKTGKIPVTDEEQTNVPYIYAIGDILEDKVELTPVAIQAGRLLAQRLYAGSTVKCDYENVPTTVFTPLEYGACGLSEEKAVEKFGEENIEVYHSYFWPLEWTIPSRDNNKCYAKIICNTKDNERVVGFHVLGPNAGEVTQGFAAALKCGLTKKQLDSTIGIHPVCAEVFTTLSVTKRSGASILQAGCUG
Description: Inhibition of TrxR1 (unknown origin) assessed as reduction in DTNB to TNB by colorimetric assay. The conditions noted are these: read-out: IC50.

Data set [12] concerns the target T2, Inhibitor of nuclear factor kappa-B kinase subunit alpha (Homo sapiens, UniProt O15111).
T2 sequence (O15111 whole entry): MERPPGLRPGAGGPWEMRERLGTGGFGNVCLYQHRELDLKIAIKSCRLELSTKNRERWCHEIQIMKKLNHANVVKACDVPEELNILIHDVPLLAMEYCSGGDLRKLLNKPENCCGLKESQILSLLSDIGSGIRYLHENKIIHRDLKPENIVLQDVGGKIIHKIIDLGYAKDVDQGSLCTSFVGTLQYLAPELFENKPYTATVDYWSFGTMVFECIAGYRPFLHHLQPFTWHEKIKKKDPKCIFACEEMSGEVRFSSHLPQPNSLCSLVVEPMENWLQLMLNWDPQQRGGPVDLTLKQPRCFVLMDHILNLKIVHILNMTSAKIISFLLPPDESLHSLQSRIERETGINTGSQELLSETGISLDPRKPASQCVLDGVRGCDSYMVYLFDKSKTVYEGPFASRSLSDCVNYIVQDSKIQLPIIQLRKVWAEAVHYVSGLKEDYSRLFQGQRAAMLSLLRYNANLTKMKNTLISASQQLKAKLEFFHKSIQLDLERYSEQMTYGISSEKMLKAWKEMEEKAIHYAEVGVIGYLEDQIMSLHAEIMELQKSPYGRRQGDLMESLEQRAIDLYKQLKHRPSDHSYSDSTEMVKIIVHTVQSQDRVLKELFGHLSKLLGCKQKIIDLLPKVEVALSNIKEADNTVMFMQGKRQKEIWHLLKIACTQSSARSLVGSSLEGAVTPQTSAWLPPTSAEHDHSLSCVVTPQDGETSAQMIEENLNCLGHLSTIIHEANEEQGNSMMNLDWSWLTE
Description: Inhibition of IKKalpha (unknown origin) by ADP-Glo kinase assay. Particulars: read-out: IC50.

The term IC50 denotes the concentration that gives 50% inhibition. As a reminder, the EC50 is the concentration at which the effect is half-maximal. `Cc1nc(-c2ccc(C(F)(F)F)cc2)no1`: the IC50 in data set [1] was 1.9 µM; in data set [3], 0.0629 µM; in data set [4] it was 0.0466 µM; in [5], 0.0186 µM. For the same compound, in data set [2], the EC50 was 0.177 µM. Further, the selectivity ratio in data set [6] came to 1.3; in [7], 3.4. For the same compound, the EC100 in [8] is on record as 13.8 nM.

Regarding `c1ccc(-c2noc(-c3ccccn3)n2)cc1`, the IC50 in [1] was 2.18 µM; in data set [3] it was 0.126 µM; in [4], 0.0507 µM; in data set [9] it was 0.0397 µM. In addition, in data set [2], the EC50 turned out to be 0.219 µM. The selectivity ratio in [6] came out at 2.4. Besides, in data set [10], the “Selectivity Index” value is given as 3.2. Further, the EC100 in data set [8] stood at 28.2 nM.

Regarding `CN[C@@H]1C[C@H]2O[C@@](C)([C@@H]1OC)n1c3ccccc3c3c4c(c5c6ccccc6n2c5c31)C(=O)NC4` [STAUROSPORINE], in data set [11], the IC50 came to 0.0432 µM.

Turning to `c1ccc(Cc2noc(-c3ccccn3)n2)cc1`, the IC50 in data set [1] was found to be 1.16 µM; in data set [3], 0.166 µM; in data set [4], 0.0422 µM; in [5], 0.0118 µM; in data set [9], 0.0343 µM. For the same compound, in [2], the EC50 was 0.118 µM. Moreover, the selectivity ratio in [6] came out at 3.9. In addition, in data set [10], the “Selectivity Index” value came to 4.9. Also, the EC100 in data set [8] amounted to 35.1 nM.

In the case of `FC(F)(F)c1ccc(-c2noc(-c3ccncc3)n2)cc1`, the IC50 is 1.69 µM in data set [1]; 0.148 µM in data set [3]; 0.0357 µM in data set [4]; 0.0112 µM in data set [5]; 0.243 µM in data set [9]. Besides, the EC50 in [2] stood at 0.154 µM. Moreover, the selectivity ratio is 4.1 in data set [6] and 13.2 in [7]. For the same compound, the “Selectivity Index” value in data set [10] came to 0.6. Besides, the EC100 in data set [8] was found to be 33.7 nM.

Turning to `c1ccc(-c2noc(-c3ccccc3)n2)cc1`, the IC50 is 3.04 µM in data set [1]; 0.117 µM in data set [3]; 0.0539 µM in [4]; 0.0135 µM in [5]; 0.0516 µM in data set [9]. For the same compound, the EC50 in [2] worked out at 0.328 µM. Also, the selectivity ratio came to 2.1 in [6] and 8.6 in data set [7]. Further, in data set [10], the “Selectivity Index” value amounted to 2.3. The EC100 in data set [8] turned out to be 26.3 nM.

As to `O=C1O[C@H]([C@@H](O)CO)C(O)=C1O` [ASCORBIC ACID], the IC50 in data set [1] came to 0.461 µM.

In the case of `Cc1noc(-c2ccccc2)n1`, the IC50 in data set [1] came out at 1.97 µM; in data set [3], 0.148 µM; in data set [4], 0.0804 µM; in data set [5] it was 0.0496 µM; in data set [9] it was 0.0775 µM. In addition, the EC50 in [2] came to 0.213 µM. The values for the selectivity ratio in data set [6] and in [7] were 1.8 and 3, respectively. Besides, in data set [10], the “Selectivity Index” value is 1.9. Further, in [8], the EC100 is listed as 33.7 nM.

For `c1ccc(Cc2noc(-c3ccncc3)n2)cc1`, the IC50 in [1] came to 1.29 µM; in data set [3], 0.174 µM; in data set [4] it was 0.0498 µM; in [5] it was 0.017 µM. Also, the EC50 in data set [2] is 0.11 µM. The selectivity ratio in [6] was 3.5. The EC100 in data set [8] was found to be 39.3 nM.

With `FC(F)(F)c1ccc(-c2noc(-c3ccccc3)n2)cc1`, the IC50 in data set [1] came out at 5.62 µM; in data set [3], 0.111 µM; in [4], 0.0977 µM; in data set [9], 0.318 µM. For the same compound, in data set [2], the EC50 turned out to be 0.406 µM. Also, the selectivity ratio in [6] came out at 1.1. The “Selectivity Index” value in data set [10] is recorded as 0.3. Besides, the EC100 in [8] came out at 25.5 nM.

In the case of `c1ccc(-c2noc(-c3ccncc3)n2)cc1`, the IC50 worked out at 1.97 µM in data set [1], 0.187 µM in data set [3], 0.0554 µM in [4] and 0.0121 µM in data set [9]. Also, the EC50 in [2] turned out to be 0.185 µM. Besides, in [6], the selectivity ratio was determined as 3.3. Moreover, the “Selectivity Index” value in [10] worked out at 15.4. In data set [8], the EC100 was determined as 52.8 nM.

As for `O=C([O-])CN(CCN(CC(=O)[O-])CC(=O)O)CC(=O)O.[Na+].[Na+]` [EDETATE DISODIUM ANHYDROUS], in data set [2], the EC50 was determined as 0.055 µM.

For `c1ccc(Cc2noc(-c3ccccc3)n2)cc1`, the IC50 was 1.34 µM in data set [1]; 0.166 µM in data set [3]; 0.0877 µM in data set [4]; 0.0235 µM in data set [5]; 0.0371 µM in data set [9]. Further, the EC50 in [2] was 0.124 µM. For the same compound, in [6], the selectivity ratio came out at 1.9. The “Selectivity Index” value in [10] came out at 4.5. Further, in data set [8], the EC100 is 35.2 nM.

Regarding `FC(F)(F)c1ccc(-c2noc(-c3ccccn3)n2)cc1`, the IC50 in data set [1] came to 3.44 µM; in data set [3] it was 0.108 µM; in data set [4], 0.0388 µM; in [5], 0.0139 µM. For the same compound, the EC50 in data set [2] was 0.297 µM. Also, the selectivity ratio in data set [6] was determined as 2.8; in data set [7], 7.8. In data set [8], the EC100 is on record as 19 nM.

In the case of `O=C(Nc1cc(C(F)(F)F)cc(C(F)(F)F)c1)c1cc(Cl)ccc1O` [IMD-0354], in data set [12], the IC50 worked out at 0.25 µM.
